Test results reported in PMC10215804, “Exploring Alternative Pathways to Target Bacterial Type II Topoisomerases Using NBTI Antibacterials: Beyond Halogen-Bonding Interactions” (Antibiotics, 2023).

Columns and labels:
[1] = Metabolic activity assessment (cytotoxicity), CellTiter 96 Aqueous One; type: cell-based; settings: human, 72 h treatment, means of three independent measurements ± SD
Experimental: HUVEC (ATCC® CRL-1730™) and HepG2 (ATCC® HB-8065™) cell lines were cultured in Dulbecco’s Modified Eagle Medium (DMEM; Sigma-Aldrich, St. Louis, MO, USA) supplemented with 10% heat-deactivated FBS (Gibco, Grand Island, NE, USA), 2 mM L-glutamine, 100 U/mL penicillin, 100 μg/mL streptomycin (all from Sigma-Aldrich, St. Louis, MO, USA) in a humidified chamber at 37 °C and 5% CO2. The experiments were carried out on passages 4–7 for both cell lines. The tested compounds were dissolved in DMSO and further diluted in culture medium to a desired final concentration. The cells were then seeded into 96-well plates at 5 × 10^4 cells/mL (100 μL/well) or 8 × 10^4 cells/mL (100 μL/well) for HUVEC and HepG2, respectively. The cells were then incubated for 24 h to allow attachment onto the wells. The cells were treated with 1 μM and 50 μM of each compound of interest, or the corresponding vehicle as control. […] Their metabolic activity was assessed after 72 h treatment using a CellTiter 96 Aqueous One Solution Cell Proliferation Assay (Promega, Madison, WI, USA), in accordance with the manufacturer’s instructions. The absorbance was measured at 492 nm on an automated microplate reader, Tecan Spark (Tecan Group Ltd., Männedorf, CH, Switzerland). Data are presented as the percentage of metabolic activity of control cells stimulated with vehicle, or as an IC50 value (mean ± SD) from three independent experiments, each conducted in triplicate (for screening) or duplicate (for IC50 determination). IC50 values were calculated using a non-linear regression model and with Graph Pad Prism 9 software.

human topoisomerase IIα = target: T1, human topoisomerase IIα (Homo sapiens, UniProt P11388); experiment: human topoisomerase II alpha relaxation high-throughput assay (selectivity); type: biochemical; settings: residual activity at 100 µM compound; mean ± SD, two independent experiments; read-out: Human TopoIIα (% RA at 100 µM)
T1 construct: purchased Inspiralis (Norwich, UK)
Experimental: For selectivity determination, a human topoisomerase II alpha relaxation high-throughput assay was used. The assay kits and black streptavidin-coated 96-well microtiter plates are available from Inspiralis (Norwich, UK). Two independent measurements were performed with an inhibitory concentration of 100 µM. Raw data were calculated as the mean ± SD percentage of the residual enzyme activity.

T1 sequence (P11388 whole entry): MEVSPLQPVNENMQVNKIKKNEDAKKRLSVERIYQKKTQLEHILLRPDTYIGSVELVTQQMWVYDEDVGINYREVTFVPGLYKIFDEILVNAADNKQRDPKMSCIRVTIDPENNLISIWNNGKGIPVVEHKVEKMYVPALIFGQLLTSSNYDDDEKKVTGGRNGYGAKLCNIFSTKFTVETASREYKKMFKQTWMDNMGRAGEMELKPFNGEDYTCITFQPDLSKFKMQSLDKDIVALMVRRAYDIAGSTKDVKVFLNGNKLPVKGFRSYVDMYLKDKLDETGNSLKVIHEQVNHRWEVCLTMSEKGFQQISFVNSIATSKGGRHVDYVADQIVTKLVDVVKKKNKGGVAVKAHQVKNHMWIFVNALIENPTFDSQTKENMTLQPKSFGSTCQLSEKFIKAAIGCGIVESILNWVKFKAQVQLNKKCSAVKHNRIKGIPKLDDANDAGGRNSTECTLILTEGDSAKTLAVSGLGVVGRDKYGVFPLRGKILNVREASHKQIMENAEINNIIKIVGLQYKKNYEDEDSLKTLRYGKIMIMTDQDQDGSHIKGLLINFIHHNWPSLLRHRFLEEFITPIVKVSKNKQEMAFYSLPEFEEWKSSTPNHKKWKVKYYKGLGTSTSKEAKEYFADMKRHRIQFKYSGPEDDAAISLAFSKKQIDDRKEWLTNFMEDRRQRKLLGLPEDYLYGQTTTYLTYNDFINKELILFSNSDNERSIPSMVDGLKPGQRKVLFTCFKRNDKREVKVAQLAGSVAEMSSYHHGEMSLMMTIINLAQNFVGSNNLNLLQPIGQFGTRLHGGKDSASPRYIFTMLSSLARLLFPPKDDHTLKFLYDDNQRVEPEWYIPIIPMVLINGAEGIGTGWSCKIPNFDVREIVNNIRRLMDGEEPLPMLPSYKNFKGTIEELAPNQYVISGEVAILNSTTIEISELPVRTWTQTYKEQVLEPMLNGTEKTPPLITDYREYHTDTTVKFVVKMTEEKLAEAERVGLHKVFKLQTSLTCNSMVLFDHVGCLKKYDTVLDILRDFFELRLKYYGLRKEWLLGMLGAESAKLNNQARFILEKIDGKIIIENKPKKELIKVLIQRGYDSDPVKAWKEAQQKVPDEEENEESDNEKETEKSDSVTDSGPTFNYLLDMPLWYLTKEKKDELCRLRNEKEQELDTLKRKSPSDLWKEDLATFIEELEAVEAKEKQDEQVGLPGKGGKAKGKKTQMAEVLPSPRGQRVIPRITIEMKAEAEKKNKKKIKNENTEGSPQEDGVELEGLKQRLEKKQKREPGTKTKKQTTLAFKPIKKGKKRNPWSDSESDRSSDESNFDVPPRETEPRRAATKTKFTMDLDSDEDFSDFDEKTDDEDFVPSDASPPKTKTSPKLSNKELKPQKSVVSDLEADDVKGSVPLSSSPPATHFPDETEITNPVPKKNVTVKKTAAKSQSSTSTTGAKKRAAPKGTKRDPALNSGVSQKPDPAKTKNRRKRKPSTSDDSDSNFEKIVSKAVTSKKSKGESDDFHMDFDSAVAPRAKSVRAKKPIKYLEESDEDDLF

Row | Compound | IC50 at 72 h ([1]; HUVEC cells (ATCC CRL-1730)) [µM] | IC50 at 72 h ([1]; HepG2 cells (ATCC HB-8065)) [µM] | remaining activity at 100 µM (human topoisomerase IIα) [%]
1 | COc1ccc2nccc(OCC3CCC(NCc4ccc(C)cc4)CC3)c2n1 (stereo not drawn) [Compound 6] | 36.6 ± 7.91 | 22.5 ± 2.7 | 101
2 | COc1ccc2nccc(OCC3CCC(NCc4ccc(C)cc4)CO3)c2n1 (stereo not drawn) [Compound 7, 6-(((6-Methoxy-1,5-naphthyridin-4-yl)oxy)methyl)-N-(4-methylbenzyl)tetrahydro-2H-pyran-3-amine] | > 50 | > 50 | 101
3 | COc1ccc2nccc(C(O)CC3CCC(NCc4ccc(C)cc4)CC3)c2n1 (stereo not drawn) [Compound 8, 1-(6-Methoxy-1,5-naphthyridin-4-yl)-2-(4-((4-methylbenzyl)amino)cyclohexyl)ethan-1-ol] | 33.1 ± 6.13 | 22.3 ± 0.36 | 100 ± 1
4 | COc1ccc2nccc(CCN3CCC(NCc4ccc(C)cc4)CC3)c2n1 [Compound 5, 1-(2-(6-Methoxy-1,5-naphthyridin-4-yl)ethyl)-N-(4-methylbenzyl)piperidin-4-amine] | 36.5 ± 9.82 | 20 ± 3.01 | 103
